The subject of this assay is RNA probe (thiol / methylene blue E-AB aptamer) (RNA, aptamer) GGGACUUGGUUUAGGUAAUGAGUCCC
Description: electrochemical aptamer-based sensor, square wave voltammetry. The following applies: 100 mM NaCl, 5 mM MgCl2; 20 mM Tris, pH 7.5; aptamer immobilised on gold.

In the case of `NC[C@H]1O[C@H](O[C@H]2[C@H](O)[C@@H](O[C@H]3O[C@H](CO)[C@@H](O)[C@H](N)[C@H]3O)[C@H](N)C[C@@H]2N)[C@H](O)[C@@H](O)[C@@H]1O`, the dissociation constants was determined as 281 µM.
